How the values were obtained:
[1] = target: T1, human GST-DYRK1A (full length) (Homo sapiens, UniProt Q13627); test: GST-DYRK1A enzyme inhibition, ADP-Glo kinase assay; assay type: biochemical; details: read-out: DYRK1 IC50
T1 construct: purified human GST-DYRK1A (full length, Thermo scientifics) enzyme; GST; purchased Thermo scientifics
Outline: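 Full-length human GST-DYRK1A (10 ng) incubated with 10 uM ATP and specific substrate for 1 h at 25° C in 40 mM Tris-HCl pH 7.4, 20 mM MgCl2, 0.5 mg/mL BSA, 50 uM DTT. ADP formation read by ADP-Glo luminescence; IC50 (nM) versus solvent control, triplicate.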

human GST-CLK1 (129-end) = target: T2, human GST-CLK1 (129-end) (Homo sapiens, UniProt P49759); test: GST-CLK1 enzyme inhibition, ADP-Glo kinase assay; assay type: biochemical; details: ATP 10 uM
T2 construct: purified human GST-CLK1 (129-end, Signalchem) enzyme; GST; purchased Signalchem
T2 sequence (P49759 129-484 limits assumed): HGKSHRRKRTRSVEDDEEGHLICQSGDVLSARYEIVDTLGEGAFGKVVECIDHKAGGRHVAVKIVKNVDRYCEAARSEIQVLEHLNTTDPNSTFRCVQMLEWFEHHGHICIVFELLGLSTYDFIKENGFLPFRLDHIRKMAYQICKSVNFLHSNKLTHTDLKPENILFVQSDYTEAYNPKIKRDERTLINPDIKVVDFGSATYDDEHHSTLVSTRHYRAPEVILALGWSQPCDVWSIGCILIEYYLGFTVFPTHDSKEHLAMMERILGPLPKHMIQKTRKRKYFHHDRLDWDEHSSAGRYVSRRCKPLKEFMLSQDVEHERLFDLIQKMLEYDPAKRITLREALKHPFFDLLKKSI
Outline: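 GST-CLK1 (129-end, 3 ng) reacted with 10 uM ATP and substrate in 40 mM Tris-HCl pH 7.4, 20 mM MgCl2, 0.5 mg/mL BSA, 50 uM DTT, 1 h at 25° C. ADP-Glo luminescence normalised to solvent control; IC50 from triplicate data.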

human DYRK1A and Tau = test: Tau phosphorylation inhibition, ClariCELL Kinase Cell-Based Assay (Carnabio)
Method: Tau phosphorylation inhibitory efficacy was measured using the ClariCELL™ Kinase Cell-Based Assay service of Carnabio, located in the United States. The compounds are exposed to human embryonic kidney ([…]) cells transiently expressing human DYRK1A and Tau, and then the cells are lysed to release cellular proteins. At this time, the released Tau is captured on a plate, and the degree of phosphorylation is quantified by ELISA using an antibody specific for Tau phosphorylation.

LRRK2 (G2019S) = LRRK2 (G2019S) (Homo sapiens, UniProt Q5S007, G2019S); test: LRRK2 G2019S enzyme inhibition, ADP-Glo kinase assay; assay type: biochemical; set-up: purchased SignalChem L10-12GG
Sequence of LRRK2 (G2019S) (Q5S007 970-2527 G2019S limits assumed): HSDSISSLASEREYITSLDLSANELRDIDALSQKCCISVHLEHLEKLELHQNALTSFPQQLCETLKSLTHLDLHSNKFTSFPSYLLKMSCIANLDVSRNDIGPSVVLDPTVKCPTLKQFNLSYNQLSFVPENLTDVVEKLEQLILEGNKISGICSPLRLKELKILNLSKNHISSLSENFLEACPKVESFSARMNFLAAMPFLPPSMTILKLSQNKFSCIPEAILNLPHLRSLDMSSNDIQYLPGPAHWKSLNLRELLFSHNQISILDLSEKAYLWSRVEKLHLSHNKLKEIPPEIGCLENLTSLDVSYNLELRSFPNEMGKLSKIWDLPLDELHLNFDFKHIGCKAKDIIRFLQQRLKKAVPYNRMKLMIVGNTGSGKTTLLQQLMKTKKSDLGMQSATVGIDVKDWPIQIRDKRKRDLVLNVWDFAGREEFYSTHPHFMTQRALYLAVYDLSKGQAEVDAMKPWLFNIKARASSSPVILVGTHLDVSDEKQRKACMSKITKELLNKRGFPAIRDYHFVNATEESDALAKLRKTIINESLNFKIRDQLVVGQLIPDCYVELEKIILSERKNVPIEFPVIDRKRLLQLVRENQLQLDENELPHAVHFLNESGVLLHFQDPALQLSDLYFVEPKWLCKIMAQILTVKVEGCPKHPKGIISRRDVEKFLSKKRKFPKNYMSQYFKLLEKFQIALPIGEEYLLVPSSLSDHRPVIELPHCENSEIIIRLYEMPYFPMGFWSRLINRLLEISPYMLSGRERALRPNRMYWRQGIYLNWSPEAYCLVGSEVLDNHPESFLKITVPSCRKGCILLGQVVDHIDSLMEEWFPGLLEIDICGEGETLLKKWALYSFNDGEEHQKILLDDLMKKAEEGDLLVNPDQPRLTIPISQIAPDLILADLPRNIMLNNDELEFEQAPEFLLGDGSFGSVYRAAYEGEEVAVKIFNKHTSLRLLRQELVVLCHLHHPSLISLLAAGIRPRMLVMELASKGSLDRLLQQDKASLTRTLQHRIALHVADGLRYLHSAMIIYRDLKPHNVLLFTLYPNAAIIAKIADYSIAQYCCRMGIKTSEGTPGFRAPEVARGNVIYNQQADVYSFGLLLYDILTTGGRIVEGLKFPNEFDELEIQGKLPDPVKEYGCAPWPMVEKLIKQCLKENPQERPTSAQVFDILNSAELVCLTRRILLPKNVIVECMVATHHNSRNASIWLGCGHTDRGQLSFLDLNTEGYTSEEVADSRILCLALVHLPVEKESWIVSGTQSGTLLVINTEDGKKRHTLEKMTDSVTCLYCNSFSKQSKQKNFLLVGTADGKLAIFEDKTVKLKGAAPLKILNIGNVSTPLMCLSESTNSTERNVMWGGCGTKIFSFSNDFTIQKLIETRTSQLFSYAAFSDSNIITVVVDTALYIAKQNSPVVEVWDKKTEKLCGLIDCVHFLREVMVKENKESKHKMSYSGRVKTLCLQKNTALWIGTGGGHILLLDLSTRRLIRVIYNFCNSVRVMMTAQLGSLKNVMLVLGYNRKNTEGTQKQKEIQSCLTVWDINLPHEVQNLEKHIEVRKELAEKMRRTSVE
Outline: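 Purified human LRRK2 G2019S (16 ng) with 25 μM ATP and 0.2 μg substrate, 2 h at 25° C in 40 mM Tris-HCl pH 7.4, 20 mM MgCl2, 0.5 mg/ml BSA, 50 μM DTT; compound at 12 final concentrations from 50 μM downward. ADP-Glo luminescence versus solvent control gave IC50 (nM).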

LRRK2 = LRRK2 (Homo sapiens, UniProt Q5S007); test: LRRK2 enzyme inhibition, ADP-Glo kinase assay; assay type: biochemical; set-up: purchased Invitrogen PR8604B
Sequence of LRRK2 (Q5S007 970-2527 limits assumed): as the sequence (Q5S007 970-2527 G2019S limits assumed) above, with S1050G counted along it
Outline: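 Purified human LRRK2 (25 ng) in 40 mM Tris-HCl pH7.4, 20 mM MgCl2, 0.5 mg/ml BSA, 50 μM DTT with 10 μM ATP and substrate ([…]), 2 h at 25° C. Final compound 50 to 0.000001024 μM, 12-point dilution. ADP-Glo luminescence vs solvent control; IC50 (nM).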

Row | SMILES | IC50 [1] | IC50 (human GST-CLK1 (129-end)) | IC50 (LRRK2 (G2019S)) | IC50 (LRRK2) | inhibition at 0.25 µM (human DYRK1A and Tau) | inhibition at 0.5 µM (human DYRK1A and Tau) | inhibition at 1 µM (human DYRK1A and Tau)
1 | CNc1cc(Nc2ccc(C(=O)N3CCOCC3)c3c2OCCO3)nc2[nH]cc(C#N)c12 [Example 106, 4-(methylamino)-6-((8-(morpholine-4-carbonyl)-2,3-dihydrobenzo[b] [1,4]dioxin-5-yl)amino)-1H-pyrrolo[2,3-b]pyridine-3-carbonitrile] | 301 to 1000 nM | 301 to 1000 nM | < 100 nM | < 100 nM | – | – | –
2 | CCCNc1cc(Nc2ccc(C(=O)N3CCC(N4CCOCC4)CC3)c3c2OCCO3)nc2[nH]cc(C#N)c12 [Example 114, 6-((8-(4-morpholinopiperidine-1-carbonyl)-2,3-dihydrobenzo [b] [1,4]dioxin-5-yl)amino)-4-(propylamino)-1H-pyrrolo[2,3-b]pyridine-3-carbonitrile] | < 100 nM | < 100 nM | < 100 nM | < 100 nM | – | – | –
3 | COc1cc(S(C)(=O)=O)ccc1Nc1cc(NC2CCC2)c2c(Cl)c[nH]c2n1 [Example 85, 3-chloro-N^4-cyclobutyl-N^6-(2-methoxy-4-(methylsulfonyl)phenyl)-1H-pyrrolo[2,3-b]pyridine-4,6-diamine] | 101 to 300 nM | 301 to 1000 nM | 301 to 1000 nM | 301 to 1000 nM | – | – | –
4 | O=C(c1ccc(Nc2cc(NC3CC3)c3c(C(F)(F)F)c[nH]c3n2)c2c1CCO2)N1CCOCC1 [Example 53, (7-((4-(cyclopropylamino)-3-(trifluoromethyl)-1H-pyrrolo[2,3-b]pyridin-6-yl)amino)-2,3-dihydrobenzofuran-4-yl)(morpholino) methanone] | < 100 nM | < 100 nM | < 100 nM | < 100 nM | – | – | –
5 | COCCNc1cc(Nc2ccc(C(=O)N3CCOCC3)c3c2OCCO3)nc2[nH]cc(Cl)c12 [Example 62, (8-((3-chloro-4-((2-methoxyethyl)amino)-1H-pyrrolo[2,3-b]pyridin-6-yl)amino)-2,3-dihydrobenzo[b] [1,4]dioxin-5-yl)(morpholino) methanone] | 301 to 1000 nM | 301 to 1000 nM | < 100 nM | < 100 nM | – | – | –
6 | CCNc1cc(Nc2ccc(S(C)(=O)=O)cc2OC)nc2[nH]ccc12 [Example 26, N^4-ethyl-N^6-(2-methoxy-4-(methylsulfonyl)phenyl)-1H-pyrrolo[2,3-b]pyridine-4,6-diamine] | 301 to 1000 nM | 301 to 1000 nM | < 100 nM | < 100 nM | – | – | –
7 | COCCNc1cc(Nc2ccc(C(=O)N3CCOCC3)c3c2OCCO3)nc2[nH]cc(C#N)c12 [Example 109, 4-((2-methoxyethyl)amino)-6-((8-(morpholine-4-carbonyl)-2,3-dihydrobenzo[b] [1,4]dioxin-5-yl)amino)-1H-pyrrolo[2,3-b]pyridine-3-carbonitrile] | < 100 nM | < 100 nM | < 100 nM | < 100 nM | – | – | –
8 | CCNc1cc(Nc2ccc(S(=O)(=O)N3CCOCC3)cc2OC)nc2[nH]cc(Cl)c12 [Example 65, 3-chloro-N^4-ethyl-N^6-(2-methoxy-4-(morpholinosulfonyl)phenyl)-1H-pyrrolo[2,3-b]pyridine-4,6-diamine] | 301 to 1000 nM | 301 to 1000 nM | 301 to 1000 nM | 101 to 300 nM | – | – | –
9 | COCCNc1cc(Nc2ccc(C(=O)N3CCC(N4CCOCC4)CC3)c3c2OCCO3)nc2[nH]cc(C#N)c12 [Example 118, 4-((2-methoxyethyl)amino)-6-((8-(4-morpholinopiperidine-1-carbonyl)-2,3-dihydrobenzo [b] [1,4]dioxin-5-yl)amino)-1H-pyrrolo[2,3-b]pyridine-3-carbonitrile] | 301 to 1000 nM | < 100 nM | < 100 nM | < 100 nM | – | – | –

Continued, in another order:

Row | IC50 [1] | IC50 (human GST-CLK1 (129-end)) | IC50 (LRRK2 (G2019S)) | IC50 (LRRK2) | SMILES | inhibition at 0.25 µM (human DYRK1A and Tau) | inhibition at 0.5 µM (human DYRK1A and Tau) | inhibition at 1 µM (human DYRK1A and Tau)
10 | < 100 nM | < 100 nM | < 100 nM | – | C=CCNc1cc(Nc2ccc(C(=O)N3CCC(N4CCOCC4)CC3)c3c2OCC3)nc2[nH]cc(C(F)(F)F)c12 [Example 255, (7-((4-(allylamino)-3-(trifluoromethyl)-1H-pyrrolo[2,3-b]pyridin-6-yl)amino)-2,3-dihydrobenzofuran-4-yl)(4-morpholinopiperidin-1-yl)methanone] | 47.7% | 89.2% | 104%
11 | 301 to 1000 nM | < 100 nM | 101 to 300 nM | < 100 nM | O=C(c1ccc(Nc2cc(NC3CC3)c3c(C(F)(F)F)c[nH]c3n2)c2c1OCCO2)N1CCOCC1 [Example 155, (8-((4-(cyclopropylamino)-3-(trifluoromethyl)-1H-pyrrolo[2,3-b]pyridin-6-yl)amino)-2,3-dihydrobenzo[b] [1,4]dioxin-5-yl)(morpholino) methanone 2,2,2-trifluoroacetate] | – | – | –
12 | 101 to 300 nM | 301 to 1000 nM | < 100 nM | < 100 nM | CCNc1cc(Nc2ccc(P(C)(C)=O)cc2OC)nc2[nH]cc(C(F)(F)F)c12 [Example 209, (4-((4-(ethylamino)-3-(trifluoromethyl)-1H-pyrrolo[2,3-b]pyridin-6-yl)amino)-3-methoxyphenyl) dimethylphosphine oxide] | – | – | –
13 | 301 to 1000 nM | 301 to 1000 nM | 101 to 300 nM | < 100 nM | CCNc1cc(Nc2ccc(S(C)(=O)=O)cc2OC)nc2[nH]cc(C#N)c12 [Example 124, 4-(ethylamino)-6-((2-methoxy-4-(methylsulfonyl)phenyl)amino)-1H-pyrrolo[2,3-b]pyridine-3-carbonitrile] | – | – | –
14 | 101 to 300 nM | < 100 nM | 101 to 300 nM | – | CCNc1cc(Nc2ccc(C(=O)N3CCN(C4CC4)CC3)c3c2OCC3)nc2[nH]cc(C(F)(F)F)c12 [Example 250, (4-cyclopropylpipe razin-1-yl)(7-((4-(ethylamino)-3-(trifluoromethyl)-1H-pyrrolo[2,3-b]pyridin-6-yl)amino)-2,3-dihydrobenzofuran-4-yl)methanone] | 34% | 59.8% | 82.8%
15 | 301 to 1000 nM | 301 to 1000 nM | 301 to 1000 nM | 301 to 1000 nM | COc1cc(S(C)(=O)=O)ccc1Nc1cc(NCC(C)C)c2c(C(F)(F)F)c[nH]c2n1 [Example 190, N^4-isobutyl-N^6-(2-methoxy-4-(methylsulfonyl)phenyl)-3-(trifluoromethyl)-1H-pyrrolo[2,3-b]pyridine-4,6-diamine] | – | – | –
16 | 301 to 1000 nM | 301 to 1000 nM | 301 to 1000 nM | 301 to 1000 nM | COc1cc(S(C)(=O)=O)ccc1Nc1cc(NC2CCCCC2)c2c(C(F)(F)F)c[nH]c2n1 [Example 182, N^4-cyclohexyl-N^6-(2-methoxy-4-(methylsulfonyl)phenyl)-3-(trifluoromethyl)-1H-pyrrolo[2,3-b]pyridine-4,6-diamine] | – | – | –
17 | 301 to 1000 nM | 301 to 1000 nM | 101 to 300 nM | < 100 nM | CCCNc1cc(Nc2ccc(S(C)(=O)=O)cc2OC)nc2[nH]cc(C#N)c12 [Example 125, 6-((2-methoxy-4-(methylsulfonyl)phenyl)amino)-4-(propylamino)-1H-pyrrolo[2,3-b]pyridine-3-carbonitrile] | – | – | –
18 | < 100 nM | < 100 nM | < 100 nM | < 100 nM | COCCNc1cc(Nc2ccc(C(=O)N3CCC(N4CCOCC4)CC3)c3c2OCCO3)nc2[nH]cc(C(F)(F)F)c12 [Example 164, (8-((4-((2-methoxyethyl)amino)-3-(trifluoromethyl)-1H-pyrrolo[2,3-b]pyridin-6-yl)amino)-2,3-dihydrobenzo[b] [1,4]dioxin-5-yl)(4-morpholinopiperidin-1-yl)methanone] | – | – | –

— US12240844B2 (Voronoi, Inc., priority 2019, dated 2025)
